Source: publication PMC12498190, “A Photocaged N‐Phosphonopiperidinone as a Selective Photo‐Cleavable DPP8/9 Inhibitor” (Chembiochem, 2025)
Like-named read-outs stand apart in the source and are kept apart here.

Assay type: physicochemical
Details: 50 µM in 10% acetonitrile/water, green LED 520-530 nm, 30 W
Description: With 5 in our hands, we then started our probe characterization by determining the velocity of the photorelease reaction, i.e., the light‐triggered cleavage of the photocage, thereby delivering again the “active” inhibitor 1. To this end, a 50 µM solution of 5 in 10% acetonitrile in MS‐grade water was irradiated with a green LED lamp (λ = 520‐530 nm, 30 W) for the indicated time periods, and the release of the active inhibitor 1 was quantified via liquid chromatography‐mass spectrometry (LC–MS) analysis (Figure 1A). […] After 3 min, cleavage was quantitative (>99%). Importantly, the only products observed were the desired ‘free’ inhibitor 1 and the cleaved photogroup, indicating a clean activation to 1.
Figure 1 DPP inhibition by photo‐cleavable inhibitors. A) LC‐MS analysis of the photocleavage reaction of 5 after irradiation with green light. 50 µM of compound 5 was irradiated with a green LED lamp (λ = 520‐530 nm, 30 W) for up to 5 min, and the resulting reaction mixture was analyzed via LC‐MS. […] B) Resulting quantification of the photolysis of 5 based on peak areas depicted in A) (n = 3 technical replicates). […] Enzyme activity was determined by measuring the release of AMC from the substrate GP‐AMC. […]
Compound 5 was dissolved in DMSO. In order to quantify the effect of irradiation time on photocleavage of the BODIPY moiety, 50 µL aliquots of a 50 µM solution of 5 in 10% acetonitrile (ACN; VWR Chemicals, USA) in MS‐grade water (VWR Chemicals, USA) were irradiated for 0–5 min with a green LED lamp (λ = 520–530 nm, 30 W; Eurolite, Germany) at room temperature (RT) and gentle shaking (final DMSO concentration: 0.5%).
Quantification of inhibitor release was then determined via LC‐MS on an LTQ XL linear ion trap mass spectrometer (ITMS; Thermo Fisher Scientific, USA) coupled to a DIONEX UltiMate 3000 system (Thermo Fisher Scientific, USA), operated using Xcalibur software 4.4.16.14. […] Quantification was done using Freestyle v1.6. based on the UV spectra (λ = 254 nm) using the Avalon peak detection algorithm. […]

Compound: CCCCCc1ccc(SCCP(=O)(OCC)N2CCC[C@H](NC(=O)OCC3=C4C(C)=CC(C)=[N+]4[B-](C)(C)n4c(C)cc(C)c43)C2=O)cc1 (some centres unmarked) [Compound 5]
- Photocage cleaved off (after 2 min): 95%
- Photocage cleaved off (after 3 min): > 99%
